Reference: US6117661A, “Mutant mono-oxygenase cytochrome P450cam” (BG plc, priority 1995, dated 2000)
Where two headings read alike, the source gives them in different places.

What was measured:
Wild type P450cam [1] = biological target: T1, Wild type P450cam (Pseudomonas putida, UniProt P00183); type: binding, P. putida; conditions: for Wild type ΔSpin high/low: -- = no shift, nd = not determined; for haem spin-state conversion on substrate binding: Soret band 418 nm to 392 nm
P450cam Mutant Y96A = P450cam Mutant Y96A (Pseudomonas putida, UniProt P00183, C335A/Y97A); type: binding, P. putida; conditions: for Mutant Y96A ΔSpin high/low: -- = no shift, nd = not determined
Wild type P450cam [2] = biological target: T1, Wild type P450cam; test: Turnover rate measured as NADH consumption rate; type: biochemical, P. putida; conditions: small alkanes; background about 0.07
Protocol: (§1) A buffered solution (50 mM Tris.HCI, pH 7.4), typically 3 ml in volume, containing 10 uM putidaredoxin, 2 uM putidaredoxin reductase, 1 uM cytochrome P-450cam mono-oxygenase (wild-type or mutant), 200 mM KCI, 50 ug/ml bovine liver catalase (Sigma), and 1 mM target organic compound such as cyclohexylbenzene (added as a 0.1 M stock in ethanol) was preincubated at 30° C. for 5 minutes. The enzymatic reaction was initiated by adding NADH to a total concentration of 2 mM. Further four aliquots of NADH (to increase the NADH concentration by 1 mM each time) were added in intervals of 10 minutes, and 30 minutes into the incubation one aliquot of substrate (to increase the concentration by 1 mM) was also added. The reaction was quenched after 60 minutes by adding 0.5 ml chloroform and vortexing the mixture. The phases were separated by centrifugation (4000 g) at 4° C. The chloroform layer was analyzed by gas chromatography.
(§2) The NADH concentration can be monitored at 340 nm and, in all cases, more substrates and NADH are added during the incubation.
(§3) Turnover rate measured as NADH consumption rate
(§4) (nmole NADH/nmole P450cam/s).

[3] = biological target: T2, P450cam Y96A (also contains the C334A mutation) (Pseudomonas putida, UniProt P00183, C335A/Y97A); type: biochemical, P. putida; conditions: small alkanes
T2 construct: reconstituted with putidaredoxin and putidaredoxin reductase
Protocol: as §1, §2, §3, §4

[4] = biological target: T3, P450cam active site mutant Y96A (also C334A) (Pseudomonas putida, UniProt P00183, C335A/Y97A); type: biochemical, P. putida; conditions: label = product
T3 construct: reconstituted with putidaredoxin and putidaredoxin reductase
Protocol: as §1
(§5) For many substrate compounds such as cyclohexylbenzene for which not all the P-450cam-mediated oxidation products are commercially available, the chloroform extracts are evaporated to dryness under a stream of nitrogen. The residues were extracted with hexane and the oxidation products separated by high performance liquid chromatography, eluting with a hexane/isopropanol gradient. The purified products were then identified by mass spectroscopy and particularly nuclear magnetic resonance spectroscopy.
as §2

[5] = biological target: T4, P450cam active site mutant Y96F (also C334A) (Pseudomonas putida, UniProt P00183, C335A/Y97F); type: biochemical, P. putida; conditions: label = product
T4 construct: reconstituted with putidaredoxin and putidaredoxin reductase
Protocol: as §1, §5, §2

| SMILES | Wild type Vs DTT (Wild type P450cam [1]) | Mutant Y96A Vs DTT (P450cam Mutant Y96A) | Mutant Y96A ΔSpin high/low (P450cam Mutant Y96A) | also measured |
| --- | --- | --- | --- | --- |
| c1ccc(Oc2ccccc2)cc1 [Diphenylether] | 5 | 50 | 20 | Wild type ΔSpin high/low (Wild type P450cam [1]): 10 |
| c1ccc2c(c1)CCCC2 [1,2,3,4-Tetrahydro naphthalene] | 10 | 40 | 40 | Wild type ΔSpin high/low (Wild type P450cam [1]): 5 |
| CC(C)C(C)C [2,3-dimethyl butane] |  |  |  | Turnover rate (NADH consumption rate) Wild type (Wild type P450cam [2]): background; Turnover rate (NADH consumption rate) Y96A [3]: 16.8 nmole NADH/nmole P450cam/s |
| c1ccc(-c2ccccc2)cc1 [Biphenyl] | 20 | 90 |  |  |
| O=C(c1ccccc1)C1CCCCC1 [Cyclohexylphenylketone] | 30 |  | 60 |  |
| CC(C)CC(C)(C)C [2,2,4-trimethyl pentane] |  |  |  | Turnover rate (NADH consumption rate) Wild type (Wild type P450cam [2]): 0.9 nmole NADH/nmole P450cam/s; Turnover rate (NADH consumption rate) Y96A [3]: 5.3 nmole NADH/nmole P450cam/s |
| CCCCCCCCCCC [n-Undecane] |  | 20 | 20 |  |
| CCc1cccc2ccccc12 [1-Ethylnaphthalene] |  | 20 | 5 |  |
| O=Cc1ccc2c(c1)Cc1ccccc1-2 [2-Fluorencarboxaldehyde] |  | 50 |  |  |
| CCCC(C)(C)C [2,2-dimethyl pentane] |  |  |  | Turnover rate (NADH consumption rate) Wild type (Wild type P450cam [2]): 5.2 nmole NADH/nmole P450cam/s; Turnover rate (NADH consumption rate) Y96A [3]: 12.8 nmole NADH/nmole P450cam/s |
| CCCCCCCC/C=C\CCCCCCCC(=O)O [Oleic acid] | ~10 | ~20 |  |  |
| CCCCC(C)(C)O [2-methyl-2-hexanol] |  |  |  | Products(%) Y96A ([4]; substrate 2-methyl hexane): 74%; Products(%) Y96F ([5]; substrate 2-methyl hexane): 72% |
| C=Cc1ccccc1 [Styrene] |  | 30 | 30 |  |
| CC1(C)C(=O)[C@]2(C)CC[C@H]1C2 [(1R)-(-)-Fenchone] | 70 | 80 | 50 | Wild type ΔSpin high/low (Wild type P450cam [1]): 40 |
| c1ccc(COCc2ccccc2)cc1 [Benzylether] | 5 |  | 55 |  |
| CCc1ccc2ccccc2c1 [2-Ethylnaphthalene] |  | 20 | 10 |  |
| CCCC(C)CCC [4-methyl heptane] |  |  |  | Turnover rate (NADH consumption rate) Wild type (Wild type P450cam [2]): 1.4 nmole NADH/nmole P450cam/s; Turnover rate (NADH consumption rate) Y96A [3]: 10.2 nmole NADH/nmole P450cam/s |
| C=C(C)[C@H]1CC=C(C)C(=O)C1 [(S)-(+)-Carvone] | 60 | 80 | 10 | Wild type ΔSpin high/low (Wild type P450cam [1]): 10 |
| c1ccc(Cc2ccccc2)cc1 [Diphenylmethane] | 5 |  | 45 |  |
| Cc1ccccc1 [Toluene] |  | 30 | 30 |  |
| O=C(Oc1ccccc1)c1ccccc1 [Phenylbenzoate] | 5 |  |  |  |
| C1CCCCC1 [Cyclohexane] |  | 60 | 60 |  |
| CC(C)CC(C)C [2,4-dimethyl pentane] |  |  |  | Turnover rate (NADH consumption rate) Wild type (Wild type P450cam [2]): 0.2 nmole NADH/nmole P450cam/s; Turnover rate (NADH consumption rate) Y96A [3]: 12.6 nmole NADH/nmole P450cam/s |
| CCCC(=O)Oc1cccc2ccccc12 [1-Naphthylbutyrate] | 5 | 5 |  |  |
| CCCC(C)C [2-methyl pentane] |  |  |  | Turnover rate (NADH consumption rate) Wild type (Wild type P450cam [2]): 3.8 nmole NADH/nmole P450cam/s; Turnover rate (NADH consumption rate) Y96A [3]: 11.7 nmole NADH/nmole P450cam/s |
| CCCCC(C)=O [2-hexanone] |  |  |  | Products(%) Y96A ([4]; substrate hexane): 15%; Products(%) Y96F ([5]; substrate hexane): 10% |
| O=C1C2CC3CC(C2)CC1C3 [adamantanone, reference compound] |  |  |  | haem spin-state conversion on substrate binding (Wild type P450cam [1]): fully converted the haem to the 5-co-ordinated, high-spin form |

| SMILES | Wild type Vs DTT (Wild type P450cam [1]) | Mutant Y96A Vs DTT (P450cam Mutant Y96A) | Mutant Y96A ΔSpin high/low (P450cam Mutant Y96A) | also measured |
| --- | --- | --- | --- | --- |
| CCCCCCCCCCCC [n-Dodecane] |  | 5 | 5 |  |
| C(=C/c1ccccc1)/c1ccccc1 [cis-Stilbene] | 20 | 50 | 40 |  |
| CCCC(O)C(C)C (stereo not shown) [2-methyl-3-hexanol] |  |  |  | Products(%) Y96A ([4]; substrate 2-methyl hexane): 4%; Products(%) Y96F ([5]; substrate 2-methyl hexane): 7% |
| CCCCCCCCCCCCOS(=O)(=O)O [SDS] | 20 | 60 |  |  |
| C1=Cc2ccccc2CC1 [1,2-Dihydronaphthalene] | 20 | 90 | 30 | Wild type ΔSpin high/low (Wild type P450cam [1]): 5 |
| CC(=O)CCC(C)C [5-methyl-2-hexanone] |  |  |  | Products(%) Y96A ([4]; substrate 2-methyl hexane): 14%; Products(%) Y96F ([5]; substrate 2-methyl hexane): 16% |
| C1CC[C@H]2CCCC[C@@H]2C1 [trans-Decahydro naphthalene] | 10 | 70 | 90 | Wild type ΔSpin high/low (Wild type P450cam [1]): 20 |
| CCCCC(C)O (stereo not shown) [2-hexanol] |  |  |  | Products(%) Y96A ([4]; substrate hexane): 26%; Products(%) Y96F ([5]; substrate hexane): 24% |
| CC1(C)[C@@H]2CC[C@@]1(C)C(=O)C2=O [(1R)-(-)-Camphorquinone] | 80 | 80 | 80 | Wild type ΔSpin high/low (Wild type P450cam [1]): 80 |
| CCCCCCCCC [n-Nonane] |  | 45 | 70 |  |
| CCC(=O)Oc1cccc2ccccc12 [1-Naphthylpropionate] | 20 | 20 | 0 |  |
| C1C2CC3CC1CC(C2)C3 [adamantane, reference compound] |  |  |  | haem spin-state conversion on substrate binding (Wild type P450cam [1]): fully converted the haem to the 5-co-ordinated, high-spin form |
| CC(C)CCC(C)O (stereo not shown) [5-methyl-2-hexanol] |  |  |  | Products(%) Y96A ([4]; substrate 2-methyl hexane): 8%; Products(%) Y96F ([5]; substrate 2-methyl hexane): 5% |
| CC1CCCCC1 [Methylcyclohexane] | 50 | 70 | 100 | Wild type ΔSpin high/low (Wild type P450cam [1]): 50 |
| O=C1c2ccccc2-c2ccccc21 [9-Fluorenone] | 20 | 5 |  |  |
| c1ccc(CNc2ccccc2)cc1 [N-Phenylbenzylamine] | 5 |  | 45 |  |
| O=C1c2ccccc2Cc2ccccc21 [Anthrone] | 5 | 5 |  |  |
| c1ccc2c(c1)Cc1ccccc1-2 [Fluorene] |  | 50 |  |  |
| C=CC(=C)C [Isoprene] |  | 10 | 10 |  |
| c1ccc(CCc2ccccc2)cc1 [Bibenzyl] |  | 55 | 55 |  |
| C1=CCCCC1 [Cyclohexene] | 5 | 40 | 40 |  |
| C1CC2CCC1C2 [norbornane, reference compound] |  |  |  | haem spin-state conversion on substrate binding (Wild type P450cam [1]): fully converted the haem to the 5-co-ordinated, high-spin form |
| CCCC(=O)CC [3-hexanone] |  |  |  | Products(%) Y96A ([4]; substrate hexane): 28%; Products(%) Y96F ([5]; substrate hexane): 16% |
| C1=CC2C3C=CC(C3)C2C1 (stereo not shown) [Dicyclopentadiene] | 80 | 90 | 90 | Wild type ΔSpin high/low (Wild type P450cam [1]): 50 |
| CC(C)CCCC(C)CCCC(C)CCCCC(C)CCCC(C)CCCC(C)C (stereo not shown) [Squalane] |  | 20 |  |  |
| CCc1ccccc1 [Ethylbenzene] |  |  | 40 |  |
| CCCC(O)CC (stereo not shown) [3-hexanol] |  |  |  | Products(%) Y96A ([4]; substrate hexane): 32%; Products(%) Y96F ([5]; substrate hexane): 50% |
